In US7279444B2, “Substituted benzoylpyrazoles” (Bayer CropScience GmbH, priority 1999, dated 2007):
Marks after values point to notes of the source that are not given here.

Assay: log P by HPLC on reversed-phase column (C 18), acidic range
Type: physicochemical
Method: Temperature: 43° C. […] The log P values given in Table 3 were determined in accordance with EEC Directive 79/831 Annex V.A8 by HPLC (High Performance Liquid Chromatography) on a reversed-phase column (C 18). Temperature: 43° C. […] The log P values given in Tables 4 were determined in accordance with EEC Directive 79/831 Annex V.A8 by HPLC (High Performance Liquid Chromatography) on a reversed-phase column (C 18). Temperature: 43° C.

SMILES	logP
CCn1ncc(C(=O)c2ccc(Cl)c(Cn3nc(SC)n(C4CC4)c3=O)c2Cl)c1O [Example 35]	(IB)logP = 2.27^a)
CCn1ncc(C(=O)c2ccc(Cl)c(Cn3nc(C)n(C4CC4)c3=O)c2Cl)c1O [Example 36]	(IB)logP = 1.64^a)
CCOn1c(CC)nn(Cc2c(Cl)ccc(C(=O)c3cnn(CC)c3O)c2Cl)c1=O [Example 38]	(IB)logP = 2.16^a)
Cc1nn(C)c(O)c1C(=O)c1ccc(Cl)c(Cn2nc(Br)n(C)c2=O)c1Cl [Example 39]	logP = 1.52^a)
Cn1ncc(C(=O)c2ccc(Cl)c(Cn3nc(Br)n(C)c3=O)c2Cl)c1O [Example 40]	logP = 1.53^a)
CCn1nc(C)c(C(=O)c2ccc(Cl)c(Cn3nc(SC)n(C)c3=O)c2Cl)c1O [Example 41]	logP = 1.91^a)
CCn1nc(C)c(C(=O)c2ccc(Cl)c(Cn3nc(OC)n(C)c3=O)c2Cl)c1O [Example 43]	logP = 1.71^a)
CCn1nc(C)c(C(=O)c2ccc(Cl)c(Cn3nc(Br)n(C)c3=O)c2Cl)c1O [Example 44]	logP = 1.81^a)
CSc1nn(Cc2c(Cl)ccc(C(=O)c3c(C)nn(C(C)(C)C)c3O)c2Cl)c(=O)n1C [Example 46]	logP = 3.30^a)
CCOc1nn(Cc2c(Cl)ccc(C(=O)c3c(C)nn(C(C)(C)C)c3O)c2Cl)c(=O)n1C [Example 47]	logP = 3.44^a)
COc1nn(Cc2c(Cl)ccc(C(=O)c3c(C)nn(C(C)(C)C)c3O)c2Cl)c(=O)n1C [Example 48]	logP = 3.02^a)
Cc1nn(C(C)(C)C)c(O)c1C(=O)c1ccc(Cl)c(Cn2nc(Br)n(C)c2=O)c1Cl [Example 49]	logP = 3.19^a)
CSc1nn(Cc2c(Cl)ccc(C(=O)c3c(C)nn(C)c3O)c2Cl)c(=O)n1C [Example 51]	logP = 1.66^a)
CCOc1nn(Cc2c(Cl)ccc(C(=O)c3c(C)nn(C)c3O)c2Cl)c(=O)n1C [Example 52]	logP = 1.76^a)
COc1nn(Cc2c(Cl)ccc(C(=O)c3c(C)nn(C)c3O)c2Cl)c(=O)n1C [Example 53]	logP = 1.48^a)
CSc1nn(Cc2c(Cl)ccc(C(=O)c3cnn(C)c3O)c2Cl)c(=O)n1C [Example 55]	logP = 1.67^a)
Cc1nn(Cc2c(Cl)ccc(C(=O)c3cnn(C)c3O)c2Cl)c(=O)n1C [Example 58]	logP = 1.19^a)
CCn1ncc(C(=O)c2ccc(Cl)c(Cn3nc(SC)n(C)c3=O)c2F)c1O [Example 62]	logP = 1.99^a)

Second part, the molecule after the results:

logP	SMILES
(IB)logP = 4.64^a)	CCn1ncc(C(=O)c2ccc(Cl)c(Cn3nc(OC(C)C)n(C4CC4)c3=O)c2Cl)c1O [Example 33]
(IB)logP = 2.65^a)	CCn1ncc(C(=O)c2ccc(Cl)c(Cn3nc(OCC(F)(F)F)n(C4CC4)c3=O)c2Cl)c1O [Example 34]
(IB)logP = 2.04^a)	CCn1ncc(C(=O)c2ccc(Cl)c(Cn3nc(N(C)C)n(C4CC4)c3=O)c2Cl)c1O [Example 37]
logP = 2.02^a)	CCOc1nn(Cc2c(Cl)ccc(C(=O)c3c(C)nn(CC)c3O)c2Cl)c(=O)n1C [Example 42]
logP = 1.40^a)	CCn1nc(C)c(C(=O)c2ccc(Cl)c(Cn3nc(C)n(C)c3=O)c2Cl)c1O [Example 45]
logP = 2.53^a)	Cc1nn(C(C)(C)C)c(O)c1C(=O)c1ccc(Cl)c(Cn2nc(C)n(C)c2=O)c1Cl [Example 50]
logP = 1.20^a)	Cc1nn(C)c(O)c1C(=O)c1ccc(Cl)c(Cn2nc(C)n(C)c2=O)c1Cl [Example 54]
logP = 1.77^a)	CCOc1nn(Cc2c(Cl)ccc(C(=O)c3cnn(C)c3O)c2Cl)c(=O)n1C [Example 56]
logP = 1.48^a)	COc1nn(Cc2c(Cl)ccc(C(=O)c3cnn(C)c3O)c2Cl)c(=O)n1C [Example 57]
logP = 1.99^a)	CCOc1nn(Cc2ccc(C(=O)c3cnn(CC)c3O)c([N+](=O)[O-])c2OC)c(=O)n1C [Example 59]
logP = 1.92^a)	CCn1ncc(C(=O)c2ccc(Cn3nc(SC)n(C)c3=O)c(OC)c2[N+](=O)[O-])c1O [Example 60]
